Data published in patent US9951043B2, “Therapeutic compounds” (Gilead Sciences, Inc., priority 2013, dated 2018).
Like-named read-outs stand apart in the source and are kept apart here.

Experiments:
[1] = system: HIV-IIIb; test: Test A: Antiviral Assay in MT4 Cells; type: cell-based, HIV-1; settings: MT-4 cells infected with HIV-IIIb, 5 days, calculated from the dose response curve, values above 100 normalized to 100%; for inhibition at 0.2 µM / inhibition at 2 µM: Human immunodeficiency virus 1, IIIB, MT4, 120 h; for inhibition at 0.2 µM: read-out: % inhibition at 0.2 μM (percent inhibition of virus-induced cell killing), 0.2 μM drug concentration; for inhibition at 2 µM: read-out: % inhibition at 2 μM (percent inhibition of virus-induced cell killing), 2 μM drug concentration; for % inhibition at 0.2 μM (percent inhibition of virus-induced cell killing): 0.2 μM drug concentration; for % inhibition at 2 μM (percent inhibition of virus-induced cell killing): 2 μM drug concentration
Procedure: Test A: Antiviral Assay in MT4 Cells
(§1) MT-4 cells were next mixed with HIV-IIIb at an m.o.i of 0.003 for 1 hour, after which time 35 μL of virus/cell mixture (2000 cells) was immediately added to each well containing 40 μL of diluted compound. The plates were then incubated at 37° C. for 5 days. […] Cell lysis was carried out by incubating at room temperature for 10 min and then chemiluminescence was read.
The data above represent an average over time of each assay for each compound. […] Thus, the data reported in the tables include the data reported in the priority document, as well as data from assays run in the intervening period.

[2] = Test B: Cytotoxicity Assay; type: cell-based; settings: human; uninfected MT-4 cells, same protocol as Test A, 5 days
Procedure: as §1
(§2) Test B: Cytotoxicity Assay
(§3) Compound cytotoxicity and the corresponding CC50 values was determined using the same protocol as described in the antiviral assay (Test A) except that uninfected cells were used.

[3] = system: uninfected MT-4 cells; test: Test B: Cytotoxicity Assay; type: cell-based
Procedure: as §1, §2, §3

## CC(C)(O)C#Cc1ccc(-c2cccc3c(N)n[nH]c23)c([C@H](Cc2cc(F)cc(F)c2)NC(=O)Cn2nc(C(F)(F)F)c3c2C(F)(F)[C@@H]2C[C@H]32)n1 [Compound 29B, N—((S)-1-(3-(3-amino-1H-indazol-7-yl)-6-(3-hydroxy-3-methylbut-1-yn-1-yl)pyridin-2-yl)-2-(3,5-difluorophenyl)ethyl)-2-((3bS,4aR)-5,5-difluoro-3-(trifluoromethyl)-3b,4,4a,5-tetrahydro-1H-cyclopropa[3,4]cyclopenta[1,2-c]pyrazol-1-yl)acetamide]
[1]
  inhibition at 0.2 µM: 80%
  inhibition at 2 µM: 81%
[2]
  CC50 at 5 days: 15.3 µM

## Cn1nc(NS(C)(=O)=O)c2cccc(-c3ccc(C#C[C@@H](N)CO)nc3[C@H](Cc3cc(F)cc(F)c3)NC(=O)Cn3nc(C(F)(F)F)c4c3C(F)(F)[C@@H]3C[C@H]43)c21 [Compound 59B, N—((S)-1-(6-((R)-3-amino-4-hydroxybut-1-yn-1-yl)-3-(1-methyl-3-(methylsulfonamido)-1H-indazol-7-yl)pyridin-2-yl)-2-(3,5-difluorophenyl)ethyl)-2-((3bS,4aR)-5,5-difluoro-3-(trifluoromethyl)-3b,4,4a,5-tetrahydro-1H-cyclopropa[3,4]cyclopenta[1,2-c]pyrazol-1-yl)acetamide]
[1]
  inhibition at 0.2 µM: 94%
  inhibition at 2 µM: 94%
[2]
  CC50 at 5 days: 22.4 µM

## Cc1ccc(-c2ccc(C#CC(C)(C)O)nc2[C@H](Cc2cc(F)cc(F)c2)NC(=O)Cn2nc(C(F)F)c3c2C(F)(F)[C@@H]2C[C@H]32)c2c1c(NS(N)(=O)=O)nn2C [Compound 71, 2-((3bS,4aR)-3-(difluoromethyl)-5,5-difluoro-3b,4,4a,5-tetrahydro-1H-cyclopropa[3,4]cyclopenta[1,2-c]pyrazol-1-yl)-N—((S)-2-(3,5-difluorophenyl)-1-(3-(1,4-dimethyl-3-(sulfamoylamino)-1H-indazol-7-yl)-6-(3-hydroxy-3-methylbut-1-yn-1-yl)pyridin-2-yl)ethyl)acetamide]
[1]
  inhibition at 0.2 µM: 87%
  inhibition at 2 µM: 87%
[2]
  CC50 at 5 days: 9.51 µM

## Cn1nc(NS(C)(=O)=O)c2c(Cl)ccc(-c3ccc(C#CC(C)(C)N)nc3[C@H](Cc3cc(F)cc(F)c3)NC(=O)Cn3nc(C(F)F)c4c3C(F)(F)[C@@H]3C[C@H]43)c21 [Compound 128B, N—((S)-1-(6-(3-amino-3-methylbut-1-yn-1-yl)-3-(4-chloro-1-methyl-3-(methylsulfonamido)-1H-indazol-7-yl)pyridin-2-yl)-2-(3,5-difluorophenyl)ethyl)-2-((3bS,4aR)-3-(difluoromethyl)-5,5-difluoro-3b,4,4a,5-tetrahydro-1H-cyclopropa[3,4]cyclopenta[1,2-c]pyrazol-1-yl)acetamide]
[1]
  % inhibition at 0.2 μM (percent inhibition of virus-induced cell killing): 93%
  % inhibition at 2 μM (percent inhibition of virus-induced cell killing): 94%
[3]; uninfected MT-4 cells, same protocol as Test A, 5 days, read-out: CC50
  CC50: 4.18 µM

## CC(C)(C)C#Cc1ccc(-c2cccn3c(NS(C)(=O)=O)nnc23)c([C@H](Cc2cc(F)cc(F)c2)NC(=O)Cn2nc(C(F)F)c3c2C(F)(F)[C@@H]2C[C@H]32)n1 [Compound 134, 2-((3bS,4aR)-3-(difluoromethyl)-5,5-difluoro-3b,4,4a,5-tetrahydro-1H-cyclopropa[3,4]cyclopenta[1,2-c]pyrazol-1-yl)-N—((S)-2-(3,5-difluorophenyl)-1-(6-(3,3-dimethylbut-1-yn-1-yl)-3-(3-(methylsulfonamido)-[1,2,4]triazolo[4,3-a]pyridin-8-yl)pyridin-2-yl)ethyl)acetamide]
[1]
  inhibition at 0.2 µM: 82%
  inhibition at 2 µM: 83%
[2]
  CC50 at 5 days: 28 µM

## COc1cc(-c2ccc(Cl)c3c(NS(C)(=O)=O)nn(C)c23)c([C@H](Cc2cc(F)cc(F)c2)NC(=O)Cn2nc(C(F)(F)F)c3c2C(F)(F)[C@@H]2C[C@H]32)nc1C#CC(C)(C)O [Compound 135B, N—((S)-1-(3-(4-chloro-1-methyl-3-(methylsulfonamido)-1H-indazol-7-yl)-6-(3-hydroxy-3-methylbut-1-yn-1-yl)-5-methoxypyridin-2-yl)-2-(3,5-difluorophenyl)ethyl)-2-((3bS,4aR)-5,5-difluoro-3-(trifluoromethyl)-3b,4,4a,5-tetrahydro-1H-cyclopropa[3,4]cyclopenta[1,2-c]pyrazol-1-yl)acetamide]
[1]
  inhibition at 0.2 µM: 93%
  inhibition at 2 µM: 93%
[2]
  CC50 at 5 days: 14.2 µM

## CCC(O)C#Cc1ccc(-c2ccc(Cl)c3c(NS(C)(=O)=O)nn(C)c23)c([C@H](Cc2cc(F)cc(F)c2)NC(=O)Cn2nc(C(F)(F)F)c3c2C(F)(F)[C@@H]2C[C@H]32)n1 (stereo partly drawn) [Compound 145, N-((1S)-1-(3-(4-chloro-1-methyl-3-(methylsulfonamido)-1H-indazol-7-yl)-6-(3-hydroxypent-1-yn-1-yl)pyridin-2-yl)-2-(3,5-difluorophenyl)ethyl)-2-((3bS,4aR)-5,5-difluoro-3-(trifluoromethyl)-3b,4,4a,5-tetrahydro-1H-cyclopropa[3,4]cyclopenta[1,2-c]pyrazol-1-yl)acetamide]
[1]
  inhibition at 0.2 µM: 99%
  inhibition at 2 µM: 99%
[2]
  CC50 at 5 days: 8.69 µM

## Cn1nc(NS(C)(=O)=O)c2c(Cl)ccc(-c3ccc(C#CC(C)(C)O)nc3[C@H](Cc3cc(F)cc(F)c3)NC(=O)Cn3nc(N)c4c3C(F)(F)[C@@H]3C[C@H]43)c21 [Compound 148B, 2-((3bS,4aR)-3-amino-5,5-difluoro-3b,4,4a,5-tetrahydro-H-cyclopropa[3,4]cyclopenta[1,2-c]pyrazol-1-yl)-N—((S)-1-(3-(4-chloro-1-methyl-3-(methylsulfonamido)-1H-indazol-7-yl)-6-(3-hydroxy-3-methylbut-1-yn-1-yl)pyridin-2-yl)-2-(3,5-difluorophenyl)ethyl)acetamide]
[1]
  % inhibition at 0.2 μM (percent inhibition of virus-induced cell killing): 83%
  % inhibition at 2 μM (percent inhibition of virus-induced cell killing): 83%
[3]
  CC50: 23.3 µM

## Cn1nc(NS(C)(=O)=O)c2c(Cl)ccc(-c3ccc(C#CC(C)(C)O)nc3[C@H](Cc3cc(F)cc(F)c3)NC(=O)Cn3nc(C4(O)CC4)c4c3CCCC4)c21 [Compound 156E, (S)—N-(1-(3-(4-chloro-1-methyl-3-(methylsulfonamido)-1H-indazol-7-yl)-6-(3-hydroxy-3-methylbut-1-yn-1-yl)pyridin-2-yl)-2-(3,5-difluorophenyl)ethyl)-2-(3-(1-hydroxvcyclopropyl)-4,5,6,7-tetrahydro-1H-indazol-1-yl)acetamide]
[1]
  % inhibition at 0.2 μM (percent inhibition of virus-induced cell killing): 78%
  % inhibition at 2 μM (percent inhibition of virus-induced cell killing): 78%
[3]
  CC50: 25.6 µM

## Cn1nc(NS(C)(=O)=O)c2c(Cl)ccc(-c3ccc(-c4ccccn4)nc3[C@H](Cc3cc(F)cc(F)c3)NC(=O)Cn3nc(C(F)(F)F)c4c3C(F)(F)[C@@H]3C[C@H]43)c21 [Compound 172, N—((S)-1-(5-(4-chloro-1-methyl-3-(methylsulfonamido)-1H-indazol-7-yl)-[2,2′-bipyridin]-6-yl)-2-(3,5-difluorophenyl)ethyl)-2-((3bS,4aR)-5,5-difluoro-3-(trifluoromethyl)-3b,4,4a,5-tetrahydro-1H-cyclopropa[3,4]cyclopenta[1,2-c]pyrazol-1-yl)acetamide]
[2]
  CC50 at 5 days: 0.061 µM

## Cn1cc(-c2ccc(-c3ccc(Cl)c4c(NS(C)(=O)=O)nn(C)c34)c([C@H](Cc3cc(F)cc(F)c3)NC(=O)Cn3nc(C(F)(F)F)c4c3C(F)(F)[C@@H]3C[C@H]43)n2)cn1 [Compound 173, N—((S)-1-(3-(4-chloro-1-methyl-3-(methylsulfonamido)-1H-indazol-7-yl)-6-(1-methyl-1H-pyrazol-4-yl)pyridin-2-yl)-2-(3,5-difluorophenyl)ethyl)-2-((3bS,4aR)-5,5-difluoro-3-(trifluoromethyl)-3b,4,4a,5-tetrahydro-1H-cyclopropa[3,4]cyclopenta[1,2-c]pyrazol-1-yl)acetamide]
[1]
  inhibition at 0.2 µM: 92%
  inhibition at 2 µM: 92%
[2]
  CC50 at 5 days: > 43.7 µM

## Cn1nc(NS(C)(=O)=O)c2c(Cl)ccc(-c3ccc(C#CC(C)(C)O)nc3[C@H](Cc3cccc(F)c3)NC(=O)Cn3nc(C(F)(F)F)c4c3C(F)(F)[C@@H]3C[C@H]43)c21 [Compound 187G, N—((S)-1-(3-(4-chloro-1-methyl-3-(methylsulfonamido)-1H-indazol-7-yl)-6-(3-hydroxy-3-methylbut-1-yn-1-yl)pyridin-2-yl)-2-(3-fluorophenyl)ethyl)-2-((3b,4aR)-5,5-difluoro-3-(trifluoromethyl)-3b,4,4a,5-tetrahydro-1H-cyclopropa[3,4]cyclopenta[1,2-c]pyrazol-1-yl)acetamide]
[1]
  % inhibition at 0.2 μM (percent inhibition of virus-induced cell killing): 84%
  % inhibition at 2 μM (percent inhibition of virus-induced cell killing): 84%
[3]
  CC50: 19.8 µM

## N—((S)-1-(3-(3-chloro-1H-benzofuro[3,2-c]pyrazol-5-yl)-6-(3-hydroxy-3-methylbut-1-yn-1-yl)pyridin-2-yl)-2-(3,5-difluorophenyl)-2-((3bS,4aR)-5,5-difluoro-3-(trifluoromethyl)-3b,4,4a,5-tetrahydro-1H-cyclopropa[3,4]cyclopenta[1,2-c]pyrazol-1-yl)acetamide [Compound 113D]
[1]
  % inhibition at 2 μM (percent inhibition of virus-induced cell killing): 97%
[3]
  CC50: 1.09 µM
